{
  "source": "patent US20090136558A1",
  "about": "“Anti-Restenosis Coatings and Uses Thereof” (VASOTECH, INC., priority 2004, published 2009)",
  "origin": "cited, not measured here",
  "conditions": "through specific binding to individual binding proteins",
  "data": [
    {"smiles": "CO[C@H]1C[C@@H]2CC[C@@H](C)[C@@](O)(O2)C(=O)C(=O)N2CCCC[C@H]2C(=O)O[C@H]([C@H](C)C[C@@H]2CC[C@@H](O)[C@H](OC)C2)CC(=O)[C@H](C)/C=C(\\C)[C@@H](O)[C@@H](OC)C(=O)[C@H](C)C[C@H](C)/C=C/C=C/C=C/1C", "note": "[sirolimus, Sirolimus]", "values": [
      {"measurement": "retention in blood vessel wall after releasing from stent", "result": "retained well in blood vessel wall for up to three days"}
    ]}
  ]
}
